Legend:
[1] = cited from earlier work
[2] = Solubility study of ophthalmically acceptable excipients (visual, incremental addition of drug, then heating); type: physicochemical
[3] = Solubility study of oil/surfactant combination (excess drug, heating, centrifugation, HPLC of supernatant); type: physicochemical; conditions: in PEG 200 (5 g), on heating
[4] = as above; type: physicochemical; conditions: for mg API dissolved temperature: on heating; for Assay: supernatant by HPLC
Experimental: Additional solubility trials were planned in order to see the impact of surfactant/oil combination on solubility of Brinzolamide. 5 g of each of the vehicles of Table 2 was added in 10 ml beakers under stirring, containing excesses of drug. Afterwards, the mixture was heated to improve solubilization. After equilibrium was achieved, the mixture was centrifuged at 4000 rpm for 10 minutes and the supernatant was quantified by high-performance liquid chromatography.

[5] = in Kolliphor EL + IPM (5 g + 1 g)
[6] = in Kolliphor EL + IPM (5 g + 3 g)
[7] = in Kolliphor EL + IPM (5 g + 5 g)
[8] = in Tween 80 + IPM + Kolliphor EL (5 g + 1 g + 3.1 g)
[9] = in Tween 80 + IPM + Kolliphor EL (5 g + 1 g + 4.6 g)
[10] = in Tween 80 + IPM + Kolliphor EL (5 g + 1 g + 12.5 g)

## CCN[C@H]1CN(CCCOC)S(=O)(=O)c2sc(S(N)(=O)=O)cc21 [Brinzolamide, (R)-4-ethylamino-3,4-dihydro-2-(3-methoxy) propyl-2H-thieno[3,2-e]-1,2-thiazine-6-sulfonamide 1, 1 dioxide]
[1]; alcohol and methanol
  solubility in alcohol and methanol: slightly soluble
[1]; water, different pH
  solubility in water versus pH: pH dependent with minimal solubility at neutral pH and increased solubility at more basic or acidic pH
[1]; water
  solubility in water: insoluble
[2]; in Anfopon
  Brinzolamide dissolved in 10 g: 60 mg
[2]; in Dubcare Olga SF
  Brinzolamide dissolved in 10 g: 60 mg
[2]; in Isopropyl Myristate (Kollicream IPM)
  Brinzolamide dissolved in 10 g: 60 mg
[2]; in Kolliphor EL
  Brinzolamide dissolved in 10 g: 1015.1 mg
[2]; in Kollisolv GTA
  Brinzolamide dissolved in 10 g: 210 mg
[2]; in Myritol 318
  Brinzolamide dissolved in 10 g: 60 mg
[2]; in PEG200
  Brinzolamide dissolved in 10 g: 2000 mg
[2]; in Radia 7104
  Brinzolamide dissolved in 10 g: 60 mg
[2]; in Sesame Oil
  Brinzolamide dissolved in 10 g: 60 mg
[2]; in Silicone Oil
  Brinzolamide dissolved in 10 g: 60 mg
[2]; in Transcutol
  Brinzolamide dissolved in 10 g: 800 mg
[2]; in Tween 80
  Brinzolamide dissolved in 10 g: 2000 mg
[3]
  mg API dissolved temperature: 1042.3 mg
[4]; in Kolliphor EL (5 g)
  API dissolved: 203.0 mg/mL
  Total mg dissolved: 1015.1 mg
  mg API dissolved @ RT: 502.6 mg
  mg API dissolved temperature: 512.5 mg
  Assay: 177.65 mg/mL
[4]; [5]
  API dissolved: 167.1 mg/mL
  Total mg dissolved: 1002.3 mg
  mg API dissolved @ RT: 802.3 mg
  mg API dissolved temperature: 200.0 mg
  Assay: 104.70 mg/mL
[4]; [6]
  API dissolved: 126.6 mg/mL
  Total mg dissolved: 1012.7 mg
  mg API dissolved @ RT: 500.5 mg
  mg API dissolved temperature: 512.2 mg
  Assay: 76.75 mg/mL
[4]; [7]
  API dissolved: 70.8 mg/mL
  Total mg dissolved: 708.0 mg
  mg API dissolved @ RT: 401.3 mg
  mg API dissolved temperature: 306.7 mg
  Assay: 68.97 mg/mL
[4]; in PEG 200 (5 g)
  API dissolved: 390.1 mg/mL
  Total mg dissolved: 1950.5 mg
  mg API dissolved @ RT: 908.2 mg
  Assay: 236.63 mg/mL
[4]; in Transcutol (5 g)
  API dissolved: 400.0 mg/mL
  Total mg dissolved: 2.000 mg
  mg API dissolved @ RT: 1008.5 mg
  mg API dissolved temperature: 991.5 mg
  Assay: 189.94 mg/mL
[4]; in Tween 80 (5 g)
  API dissolved: 204.2 mg/mL
  Total mg dissolved: 1020.9 mg
  mg API dissolved @ RT: 501.9 mg
  mg API dissolved temperature: 519.0 mg
  Assay: 169.08 mg/mL
[4]; in Tween 80 + IPM (5 g + 1 g)
  API dissolved: 133.8 mg/mL
  Total mg dissolved: 802.8 mg
  mg API dissolved @ RT: 400.9 mg
  mg API dissolved temperature: 401.9 mg
  Assay: 113.05 mg/mL
[4]; in Tween 80 + IPM (5 g + 3 g)
  API dissolved: 100.3 mg/mL
  Total mg dissolved: 802.7 mg
  mg API dissolved @ RT: 400.3 mg
  mg API dissolved temperature: 402.4 mg
  Assay: 84.49 mg/mL
[4]; in Tween 80 + IPM (5 g + 5 g)
  API dissolved: 90.9 mg/mL
  Total mg dissolved: 908.6 mg
  mg API dissolved @ RT: 400.0 mg
  mg API dissolved temperature: 508.6 mg
  Assay: 52.08 mg/mL
[4]; [8]
  API dissolved: 110.9 mg/mL
  Total mg dissolved: 1009.1 mg
  mg API dissolved @ RT: 501.5 mg
  mg API dissolved temperature: 507.6 mg
  Assay: 88.93 mg/mL
[4]; [9]
  API dissolved: 110.1 mg/mL
  Total mg dissolved: 1002.1 mg
  mg API dissolved @ RT: 404.0 mg
  mg API dissolved temperature: 602.1 mg
  Assay: 102.12 mg/mL
[4]; [10]
  API dissolved: 43.5 mg/mL
  Total mg dissolved: 805.6 mg
  mg API dissolved @ RT: 403.4 mg
  mg API dissolved temperature: 402.2 mg
  Assay: 39.65 mg/mL
